In ChEMBL document CHEMBL6074675, “4-Substituted-2-Thiazole Amides as Viral Replication Inhibitors of Alphaviruses” (J Med Chem, 2024):
Calls of active or inactive are those of the source. The rule behind the calls is not given here.

Legend:
[1] = AUC in C57BL/6 mouse at 40 mg/kg, po; assay type: ADME, organism-based; conditions: in vivo
[2] = Cytotoxicity against human HEK293 cells; assay type: toxicity, cell-based
Homo sapiens [3] = species: Homo sapiens; assay: Inhibition of PI3K/Akt/mTOR (unknown origin) upto 10 uM relative to control
[4] = target: Dihydroorotate dehydrogenase (quinone), mitochondrial (Homo sapiens) (UniProt Q02127); assay: Inhibition of human DHODH
[5] = AUC in C57BL/6 mouse at 40 mg/kg, ip; assay type: ADME, organism-based; conditions: in vivo
Chikungunya virus [6] = assay: Antiviral activity against Chikungunya virus 181/25 infected in C57BL/6J mouse assessed as reduction in viral dissemination to quadriceps at 80 mg/kg, ip bid for 3 days infected with virus at 2 hrs after first compound treatment and measured at 12 hrs post-final dose by RT-qPCR analysis; assay type: functional, organism-based; conditions: time 3.0 day
Zika virus [7] = assay: Antiviral activity against Zika virus PRABC59 infected in human HEK293 cells assessed as reduction of virus load measured at 3 days post-infection by focus-forming assay; assay type: functional; conditions: PRABC59, HEK293, 72 h, time 3 day
[8] = Half life of the compound in human liver microsomes in presence of NADPH by LC-MS/MS analysis; assay type: ADME, Microsome
[9] = Oral bioavailability in C57BL/6 mouse at 40 mg/kg; assay type: ADME, organism-based; conditions: in vivo
[10] = Half life of the compound in mouse liver microsomes in presence of NADPH by LC-MS/MS analysis; assay type: ADME, Microsome
[11] = tested on: Venezuelan equine encephalitis virus; assay: Antiviral activity against VEEV TC-83 infected in human NHDF cells assessed as log reduction of virus titer at 10 uM treated with cells at 1 hr prior to infection and measured at 24 hrs post-infection by plaque assay; assay type: functional; conditions: time 25 hrs
[12] = Bioavailability in C57BL/6 mouse at 40 mg/kg, sc; assay type: ADME, organism-based; conditions: in vivo
Zika virus [13] = assay: Antiviral activity against Zika virus PRABC59 infected in human HEK293 cells assessed as log reduction of virus titer at 10 uM measured at 3 days post-infection by focus-forming assay; assay type: functional; conditions: time 3 day
[14] = tested on: Venezuelan equine encephalitis virus; assay: Antiviral activity against VEEV TC-83 infected in human NHDF cells assessed as reduction of virus titer treated with cells at 1 hr prior to infection and measured at 24 hrs post-infection by plaque assay; assay type: functional; conditions: TC-83, NHDF, time 25 hrs
[15] = Cmax in C57BL/6 mouse at 40 mg/kg, ip; assay type: ADME, organism-based; conditions: in vivo
Homo sapiens [16] = species: Homo sapiens; assay: Inhibition of Numb-asociated kinase (unknown origin) upto 10 uM relative to control
[17] = Half life in C57BL/6 mouse at 40 mg/kg, sc; assay type: ADME, organism-based; conditions: in vivo
[18] = Half life in C57BL/6 mouse at 40 mg/kg, ip; assay type: ADME, organism-based; conditions: in vivo
Chikungunya virus [19] = assay: (§1) Antiviral activity against Chikungunya virus 181/25 infected in human NHDF cells assessed as inhibition of viral RNA synthesis by measuring 49S genomic RNA accumulation at 10 uM treated with cells for 1 hr prior to infection and measured at 12 hrs post-infection by DIG-labeled probe based Northern blot analysis; assay type: functional, organism-based; conditions: time 13.0 hrs
Chikungunya virus [20] = assay: Antiviral activity against Chikungunya virus 181/25 infected in human NHDF cells assessed as inhibition of viral translation by measuring decrease in E2 protein expression at 10 uM cells treated with compound prior to infection and measured at 12 hrs post-infection by western blot analysis; assay type: functional, organism-based
Chikungunya virus [21] = assay: Antiviral activity against Chikungunya virus 181/25 infected in human NHDF cells assessed as inhibition of viral entry at 10 uM pretreated with virus for 2 hrs prior to infection and measured at 24 hrs post-infection by plaque assay; assay type: functional, organism-based; conditions: time 26.0 hrs
[22] = Half life in C57BL/6 mouse at 40 mg/kg, po; assay type: ADME, organism-based; conditions: in vivo
[23] = Half life in C57BL/6 mouse at 1 mg/kg, iv; assay type: ADME, organism-based; conditions: in vivo
dengue virus type 2 [24] = assay: Antiviral activity against Dengue virus 2 NGC infected in human HEK293 cells assessed as log reduction of virus titer at 10 uM measured at 3 days post-infection by focus-forming assay; assay type: functional; conditions: time 3 day
[25] = AUC in C57BL/6 mouse at 40 mg/kg, sc; assay type: ADME, organism-based; conditions: in vivo
Chikungunya virus [26] = assay: Antiviral activity against Chikungunya virus 181/25 infected in human NHDF cells assessed as log reduction of virus titer at 10 uM treated with cells at 1 hr prior to infection and measured at 24 hrs post-infection by plaque assay; assay type: functional; conditions: time 25 hrs
[27] = Cmax in C57BL/6 mouse at 40 mg/kg, sc; assay type: ADME, organism-based; conditions: in vivo
dengue virus type 2 [28] = assay: Antiviral activity against Dengue virus 2 NGC infected in human HEK293 cells assessed as reduction of virus load measured at 3 days post-infection by focus-forming assay; assay type: functional; conditions: HEK293, 72 h, time 3 day
Heme oxygenase 1 = target: T1, Heme oxygenase 1 (Homo sapiens, UniProt P09601); assay: Inhibition of HO-1 (unknown origin)
T1 sequence (P09601 whole entry): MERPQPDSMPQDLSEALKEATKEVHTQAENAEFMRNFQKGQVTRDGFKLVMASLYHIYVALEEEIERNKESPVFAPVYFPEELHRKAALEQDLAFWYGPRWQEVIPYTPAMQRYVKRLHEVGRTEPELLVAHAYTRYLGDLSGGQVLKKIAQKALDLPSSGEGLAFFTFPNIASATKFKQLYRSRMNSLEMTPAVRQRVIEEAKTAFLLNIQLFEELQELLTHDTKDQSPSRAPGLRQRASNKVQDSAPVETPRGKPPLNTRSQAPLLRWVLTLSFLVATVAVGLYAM

[29] = Octanol/PBS buffer distribution coefficient, logD of the compound at pH 7.5 by LC-MS analysis; assay type: physicochemical
[30] = target: Epidermal growth factor receptor (Homo sapiens) (UniProt P00533); assay: Inhibition of EGFR (unknown origin) upto 10 uM relative to control
Chikungunya virus [31] = assay: Antiviral activity against Chikungunya virus 181/25 infected in C57BL/6J mouse assessed as reduction in viral load in ipsilateral ankle at 80 mg/kg, ip bid for 3 days infected with virus at 2 hrs after first compound treatment and measured at 12 hrs post-final treatment; assay type: functional, organism-based; conditions: time 3.0 day
Chikungunya virus [32] = assay: Antiviral activity against Chikungunya virus 181/25 infected in C57BL/6J mouse assessed as reduction in viral load in contralateral ankle at 80 mg/kg, ip bid for 3 days infected with virus at 2 hrs after first compound treatment and measured at 12 hrs post-final treatment; assay type: functional, organism-based; conditions: time 3.0 day
Chikungunya virus [33] = assay: as §1, with “26S subgenomic” for “49S genomic”; assay type: functional, organism-based; conditions: time 13.0 hrs
Chikungunya virus [34] = assay: Antiviral activity against Chikungunya virus 181/25 infected in human NHDF cells assessed as inhibition of infectious virus production at 10 uM treated with infectious cells at 6 hrs post-infection and measured at 48 hrs post-infection following culturing on Vero cells by limiting dilution plaque assay; assay type: functional, organism-based; conditions: time 42.0 hrs
Chikungunya virus [35] = assay: Antiviral activity against Chikungunya virus 181/25 infected in C57BL/6J mouse assessed as reduction in footpad swelling at 80 mg/kg, ip bid for 3 days infected with virus at 2 hrs after first compound treatment and measured at 12 hrs post-final treatment by digital caliper analysis; assay type: functional, organism-based; conditions: time 3.0 day
West Nile virus [36] = assay: Antiviral activity against West Nile virus NY99 infected in human HEK293 cells assessed as log reduction of virus titer at 10 uM measured at 3 days post-infection by focus-forming assay; assay type: functional; conditions: time 3 day
[37] = Cytotoxicity against human NHDF cells deficient of IRF3 assessed as reduction in cell viability incubated for 72 hrs by CellTiter Glo luminescence assay; assay type: toxicity, cell-based
West Nile virus [38] = assay: Antiviral activity against West Nile virus NY99 infected in human HEK293 cells assessed as reduction of virus load measured at 3 days post-infection by focus-forming assay; assay type: functional; conditions: NY99, HEK293, 72 h, time 3 day
[39] = Cmax in C57BL/6 mouse at 40 mg/kg, po; assay type: ADME, organism-based; conditions: in vivo
[40] = Cytotoxicity against human NHDF cells assessed as reduction in cell viability incubated for 24 hrs by CellTiter Glo luminescence assay; assay type: toxicity, cell-based
Homo sapiens [41] = species: Homo sapiens; assay: Inhibition of CDK (unknown origin) upto 10 uM relative to control
[42] = Bioavailability in C57BL/6 mouse at 40 mg/kg, ip; assay type: ADME, organism-based; conditions: in vivo
Homo sapiens [43] = species: Homo sapiens; assay: Inhibition of MAPK (unknown origin) upto 10 uM relative to control
[44] = AUC in C57BL/6 mouse at 1 mg/kg, iv; assay type: ADME, organism-based; conditions: in vivo
[45] = Kinetic solubility of the compound in simulated intestinal fluid at pH 7.5 by LC-MS analysis; assay type: physicochemical; conditions: read-out: Kinetic_solubility
Chikungunya virus [46] = assay: Antiviral activity against Chikungunya virus 181/25 infected in C57BL/6J mouse assessed as reduction in viral dissemination to spleen at 80 mg/kg, ip bid for 3 days infected with virus at 2 hrs after first compound treatment and measured at 12 hrs post-final dose by RT-qPCR analysis; assay type: functional, organism-based; conditions: time 3.0 day
Chikungunya virus [47] = assay: Antiviral activity against Chikungunya virus S27 infected in golden hamster BHK-21 cells assessed as inhibition of virus-induced cytopathic effect measured after 4 days by microscopic analysis; assay type: functional, organism-based; conditions: S27, BHK-21, 96 h

Epidermal growth factor receptor (Homo sapiens), sequence (P00533 whole entry): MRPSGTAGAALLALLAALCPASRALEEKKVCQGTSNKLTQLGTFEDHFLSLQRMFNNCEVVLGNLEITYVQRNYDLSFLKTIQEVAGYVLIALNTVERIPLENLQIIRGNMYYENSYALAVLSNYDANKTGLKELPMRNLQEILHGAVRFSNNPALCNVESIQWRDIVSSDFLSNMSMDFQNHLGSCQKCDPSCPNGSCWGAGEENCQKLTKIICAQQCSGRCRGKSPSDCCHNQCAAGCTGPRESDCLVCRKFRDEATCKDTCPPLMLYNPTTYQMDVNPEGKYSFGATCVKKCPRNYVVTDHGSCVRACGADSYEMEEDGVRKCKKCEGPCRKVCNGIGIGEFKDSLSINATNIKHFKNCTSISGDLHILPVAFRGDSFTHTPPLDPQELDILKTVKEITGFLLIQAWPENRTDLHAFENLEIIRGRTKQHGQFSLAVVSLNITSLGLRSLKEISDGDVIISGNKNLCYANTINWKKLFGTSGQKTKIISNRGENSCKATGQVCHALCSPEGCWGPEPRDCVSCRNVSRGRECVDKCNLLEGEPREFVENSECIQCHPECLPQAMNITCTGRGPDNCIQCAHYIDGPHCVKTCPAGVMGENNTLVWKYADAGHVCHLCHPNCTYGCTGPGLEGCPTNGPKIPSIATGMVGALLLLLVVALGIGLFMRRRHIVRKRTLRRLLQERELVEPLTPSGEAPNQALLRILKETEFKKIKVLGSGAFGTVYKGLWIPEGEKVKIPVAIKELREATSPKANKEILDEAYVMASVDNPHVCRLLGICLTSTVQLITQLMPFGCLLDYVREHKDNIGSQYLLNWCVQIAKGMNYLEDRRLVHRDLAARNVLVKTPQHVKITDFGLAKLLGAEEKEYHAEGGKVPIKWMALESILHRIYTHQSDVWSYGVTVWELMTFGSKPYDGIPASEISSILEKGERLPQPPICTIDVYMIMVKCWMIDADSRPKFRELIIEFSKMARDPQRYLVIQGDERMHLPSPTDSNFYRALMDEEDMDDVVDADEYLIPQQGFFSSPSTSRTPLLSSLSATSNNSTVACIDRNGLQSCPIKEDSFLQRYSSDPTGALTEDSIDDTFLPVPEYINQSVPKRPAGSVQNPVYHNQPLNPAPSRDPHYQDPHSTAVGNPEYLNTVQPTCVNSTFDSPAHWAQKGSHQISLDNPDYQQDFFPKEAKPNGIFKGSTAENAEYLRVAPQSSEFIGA
Dihydroorotate dehydrogenase (quinone), mitochondrial (Homo sapiens), sequence (Q02127 whole entry): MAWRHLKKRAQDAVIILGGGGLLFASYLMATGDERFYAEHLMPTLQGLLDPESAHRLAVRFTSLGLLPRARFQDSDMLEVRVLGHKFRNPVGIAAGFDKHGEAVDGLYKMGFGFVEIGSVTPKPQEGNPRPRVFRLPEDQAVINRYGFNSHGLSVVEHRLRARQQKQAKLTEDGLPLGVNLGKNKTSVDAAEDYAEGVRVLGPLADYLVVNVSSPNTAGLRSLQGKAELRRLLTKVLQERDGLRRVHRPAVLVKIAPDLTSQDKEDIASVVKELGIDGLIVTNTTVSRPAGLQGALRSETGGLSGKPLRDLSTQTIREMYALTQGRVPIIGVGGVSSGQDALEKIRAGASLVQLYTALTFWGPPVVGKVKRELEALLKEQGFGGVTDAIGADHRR

Compound: CSc1ncccc1C(=O)Nc1nc(-c2cccc(Nc3ccc(C#N)cc3)c2)cs1
- AUC [1]: 15300 ng·h/mL
- CC50 [2]: > 30000 nM
- inhibition (Homo sapiens [3]): < 30%
- inhibition [4]: Active
- AUC [5]: 30600 ng·h/mL
- Activity (Chikungunya virus [6]): Active
- EC90 (Zika virus [7]): 170 nM
- half-life [8]: 0.383 h
- bioavailability [9]: 45%
- half-life [10]: 1.23 h
- log(activity) [11]: 5.9
- bioavailability [12]: 5%
- log(activity) (Zika virus [13]): 3.5
- EC90 [14]: 190 nM
- Cmax [15]: 2460 ng/mL
- inhibition (Homo sapiens [16]): < 30%
- half-life [17]: 5.7 h
- half-life [18]: 3.52 h
- Activity (Chikungunya virus [19]): inactive
- Activity (Chikungunya virus [20]): Active
- Activity (Chikungunya virus [21]): inactive
- half-life [22]: 2.38 h
- half-life [23]: 1.78 h
- log(activity) (dengue virus type 2 [24]): 2.6
- AUC [25]: 1520 ng·h/mL
- log(activity) (Chikungunya virus [26]): 8.7
- Cmax [27]: 142 ng/mL
- EC90 (dengue virus type 2 [28]): 120 nM
- EC50 (Heme oxygenase 1): > 50000 nM
- logD [29]: > 4.04
- inhibition [30]: < 30%
- Activity (Chikungunya virus [31]): inactive
- Activity (Chikungunya virus [32]): inactive
- Activity (Chikungunya virus [33]): inactive
- Activity (Chikungunya virus [34]): Active
- Activity (Chikungunya virus [35]): inactive
- log(activity) (West Nile virus [36]): 2.6
- CC50 at 72 h [37]: > 30000 nM
- EC90 (West Nile virus [38]): 750 nM
- Cmax [39]: 2100 ng/mL
- CC50 at 24 h [40]: > 30000 nM
- inhibition (Homo sapiens [41]): < 30%
- bioavailability [42]: 91%
- inhibition (Homo sapiens [43]): < 30%
- AUC [44]: 821 ng·h/mL
- solubility kinetic [45]: < 1 µM
- Activity (Chikungunya virus [46]): Active

Compound: O=C(CCN1CCOCC1)c1c(CO)c2ccccc2[nH]c1=O
- EC50 (Chikungunya virus [47]): 2200 nM
